Results published in patent US12390532B2, “ALK protein regulator and anti-tumor application thereof” (SHANGHAITECH UNIVERSITY, priority 2019, dated 2025).

What was measured:
[1] = test system: SR cells (NPM-ALK, human anaplastic large cell lymphoma cells); test: Proliferation inhibition (IC50) in SR cells, CCK8 (WST) reagent; assay type: cell-based; details: 72 h, SR cells, WST reagent, 72 hours, read-out: IC50 (half inhibitory concentration), Brigatinib series in lymphoma cell lines
ALK protein = target: T1, ALK protein (Homo sapiens, UniProt Q9UM73); test: Western blot of ALK protein degradation in SR cells; assay type: cell-based; details: 16 hours, concentrations up to 500 nM
T1 construct: We studied the total ALK protein in the anaplastic large cell lymphoma cell line SR; host or cells: SR cells (human anaplastic large cell lymphoma); the other entry of the earlier key: NPM1 (P06748, Nucleophosmin)
T1 sequence (Q9UM73 with tags, fused parts or gaps): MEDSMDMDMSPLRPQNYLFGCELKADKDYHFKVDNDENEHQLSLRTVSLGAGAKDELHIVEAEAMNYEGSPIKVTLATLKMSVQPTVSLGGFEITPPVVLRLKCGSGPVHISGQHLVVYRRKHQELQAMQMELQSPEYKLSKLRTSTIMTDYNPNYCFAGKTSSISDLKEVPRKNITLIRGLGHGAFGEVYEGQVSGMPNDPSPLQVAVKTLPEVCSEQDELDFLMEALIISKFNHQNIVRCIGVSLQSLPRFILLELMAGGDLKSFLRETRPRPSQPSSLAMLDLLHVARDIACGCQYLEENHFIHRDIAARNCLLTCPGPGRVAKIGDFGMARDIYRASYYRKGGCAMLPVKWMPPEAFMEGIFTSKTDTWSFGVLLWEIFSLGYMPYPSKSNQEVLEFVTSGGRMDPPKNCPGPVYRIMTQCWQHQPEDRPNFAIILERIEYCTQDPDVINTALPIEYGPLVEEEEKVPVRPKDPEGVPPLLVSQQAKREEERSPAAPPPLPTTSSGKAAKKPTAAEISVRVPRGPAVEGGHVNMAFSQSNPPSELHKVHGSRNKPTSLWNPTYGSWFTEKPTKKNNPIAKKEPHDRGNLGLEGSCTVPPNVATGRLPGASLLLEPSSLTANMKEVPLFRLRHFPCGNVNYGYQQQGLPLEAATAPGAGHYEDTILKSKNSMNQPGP
Experimental: (§1) The ALK gene rearrangement positive cell line used was SR cells (NPM-ALK, human anaplastic large cell lymphoma cells). MDA-MB231 was a triple-negative breast cancer cell. Both SR cells and MDA-MB231 cells were purchased from ATCC. The 293T cells overexpressing EML4-ALK G1202R were the cells constructed and verified for correct expression by this laboratory.
Tumor cells were seeded in a 24-well plate containing 1 ml of RPMI1640 medium at 1.5-3×10^5 cells/well. The next day, the cells were treated with different concentrations of drugs. After 16 hours, the supernatant was removed and the cells were washed with PBS. The cells were placed on ice and the cells were treated with RIPA protein lysate containing Halt protease and phosphatase inhibitors. The lysate was centrifuged at 10000RPM at 4° C. for 10 minutes, and the supernatant was collected. The same amount of protein was added to the 4×SDS sample solution, denatured at 95° C. for 5 minutes and freezen to −20° C., or protein electrophoresis was directly performed. GenScript, a 4-20% gradient protein precast gel was used as the electrophoresis gel. The electrophoresis tank and related components were purchased from Bio-rad, and the electrophoresis conditions were equal pressure 120 v for 2 hours. PVDF membrane was used for the transfer membrane, and the transfer membrane system was placed on ice with an equal current of 400 mA for one hour. After transferring the membrane, it was sealed with TBST+5% milk powder for half an hour. For the specific steps of immunoblotting, refer to the antibody instructions of Cell Signaling Technology.
DC50 (the drug concentration corresponding to protein degradation to 50%) calculation: according to the gray value of the Western blotting band after the drug is processed, the relationship curve between the drug concentration and the gray value is fitted by Prism GraphPad software to calculate the drug concentration range corresponding half of the gray value.
The cells with different concentrations (0, 10, 50, 100, 500 nM) of Brigatinib were first treated in SR cells for 16 hours. Western blotting was used on cell lysate to detect the effect of Brigatinib on the content of ALK protein (FIG. 2).

[2] = test system: 293T cells overexpressing EML4-ALK G1202R; test: Proliferation inhibition (IC50) in 293T cells overexpressing EML4-ALK G1202R; assay type: cell-based; details: Homo sapiens, HEK-293T; WST reagent, 72 hours; read-out: IC50 (half inhibitory concentration) in 293T cells overexpressing EML4-ALK G1202R
Experimental: (§2) The IC50 of the compound of the present disclosure was determined using Promega's Cell Titer Blue, Cell Titer GLO or commercially available WST reagents. The specific steps were as follows: the cells were seeded in a 96-well plate containing 100 microliters of RPMI medium containing serum at a number of 2000 cells/well. On the second day, the original drug and the compound of the present disclosure were serially diluted and added to the cells. After 72 hours of treatment with the compound of the present disclosure, the cell activity detection reagent was added to the culture medium for cell activity determination according to the instructions. The negative control was DMSO, and the positive control was the original drug, and the cells were treated in the same manner as the compound of the present disclosure. The growth inhibition of the compounds of the present disclosure on cells was plotted by Prism Graphpad software and the IC50 of the compounds of the present disclosure was counted from it.

[3] = test system: triple-negative breast cancer MDA-MB-231 cell line; test: Proliferation inhibition (IC50) in MDA-MB-231 cell line; assay type: cell-based; details: Homo sapiens, WST reagent, 72 hours, read-out: IC50 (half inhibitory concentration) in MDA-MB-231 cell line
Experimental: as §1, §2

lung cancer patients = details: cited from earlier work

IC50 [1]: 6.9 nM
degradation effect on ALK protein (ALK protein): no degradation effect
IC50 [3]: 381 ± 41 nM
SMILES: COc1cc(N2CCC(N3CCN(C)CC3)CC2)ccc1Nc1ncc(Cl)c(Nc2ccccc2P(C)(C)=O)n1 [Brigatinib, reference compound]
IC50 [2]: 473 ± 129 nM
control rate (lung cancer patients): 86%
effective rate (lung cancer patients): 55%
